{"source": "patent US20100056606A1", "about": "“Combination therapy using budesonide and antisense oligonucleotide targeted to IL4-receptor alpha” (ISIS Pharmaceuticals, Inc., priority 2005, published 2010)", "key": {"[1]": {"tested_on": "OVA sensitized mice", "test": "Acute allergic inflammation mouse model with inhaled budesonide and/or ISIS 231894", "format": "in vivo", "method": "In the mouse model of allergic inflammation, mice are sensitized and challenged with aerosolized chicken ovalbumin (OVA). Airway responsiveness is assessed by inducing airflow obstruction using a noninvasive method whereby unrestrained conscious OVA sensitized mice are placed into the main chamber of a plethysmograph (Buxco Electronics, Inc. Troy, N.Y.) and challenged with aerosolized methacholine. Pressure difference between this chamber and a reference chamber is used to extrapolate minute volume, breathing frequency and enhanced pause (Penh). Penh is a dimensionless parameter that is a function of total pulmonary airflow (i.e. the sum of the airflow in the upper and lower respiratory tracts) during the respiratory cycle of a mouse and is lower when airflow is greater.\nFor the acute model of allergic inflammation, mice were sensitized with 20 μg of alum-precipitated OVA was injected intraperitoneally on days 0 and 14. On days 24, 25 and 26, animals were exposed for 20 minutes to 1% OVA (in saline) by ultrasonic nebulization. On days 17, 19, 21, 24 and 26 animals were dosed with vehicle alone (saline), 1 μg/kg or 10 μg/kg of ISIS 231894 or the mismatch control oligonucleotide. Oligonucleotides or vehicle were suspended in 0.9% sodium chloride and delivered via inhalation using a nose-only aerosol delivery exposure system. A Lovelace nebulizer set at a flow rate of 1.4 liter per minute feeding into a total flow rate of 10 liters per minute was used to deliver the oligonucleotide. The exposure chamber was equilibrated with an oligonucleotide aerosol solution for 5 minutes before mice were placed in a restraint tube attached to the chamber. Restrained mice were treated for a total of 10 minutes. Analysis was performed on day 28.\nThe acute mouse model of allergic inflammation was used to determine if co-administration of inhaled IL-4R alpha antisense oligonucleotide would enhance the activity of inhaled budesonide, or reduce the dose required to produce anti-inflammatory activity. As described in Example 6, mice were sensitized with alum-precipitated OVA at day 0 and day 14 and nebulized with OVA in saline on days 24, 25 and 26. All mice were analyzed on day 28. Budesonide (0.3, 3, 30, and 300 μg/kg dissolved in PBS Containing 20% DMSO) was administered by nose-only aerosol exposure beginning on day 23 (24 and 20 hours before OVA exposure) and then daily through day 26, one hour prior to daily OVA exposure. The 30 μg/kg dose was also administered twice a day (bid) from day 23-26 as a separate group. As in Example 6, ISIS 231894 was administered by nose-only aerosol exposure at day 17, 19, 21, 23 and 26.\nThe effect of budesonide and/or ISIS 231894 treatment on AHR, BAL eosinophil infiltration and mucus accumulation (number of PAS-positive airways) were determined."}, "[2]": {"tested_on": "OVA sensitized mice", "test": "Allergic rhinitis mouse model, intranasal administration", "format": "in vivo", "procedure": "In a mouse model of allergic rhinitis, animals were sensitized intraperitoneally with alum-precipitated OVA on days 1, 5, 10 and 15. OVA diluted with saline was administered intranasally (25 μL of 500 μg OVA in each nare) daily, on days 18-22, 25-29, and 32-35. ISIS 231894 and budesonide were administered intranasally, with budesonide administration one hour before each intranasal OVA challenge. ISIS 231894 was administered on days 11, 13, 15, and one hour before each intranasal OVA challenge. Endpoints were evaluated on day 36 and included nasal mucus accumulation (nasal histopathology) nasal eosinophilia, neutrophilia (by nasal lavage analysis and microscopic eosinophil counts in epithelial tissue) and allergic symptoms (numbers of sneezes and nose-rubs observed over a fixed time period)."}, "[3]": {"tested_on": "OVA sensitized mice", "test": "Mouse model of allergic inflammation, chronic model (Penh, BAL cells, cytokines)", "format": "in vivo", "conditions": "2.5 mg/kg intraperitoneal, day 76", "procedure": "In the mouse model of allergic inflammation, mice are sensitized and challenged with aerosolized chicken ovalbumin (OVA). Airway responsiveness is assessed by inducing airflow obstruction using a noninvasive method whereby unrestrained conscious OVA sensitized mice are placed into the main chamber of a plethysmograph (Buxco Electronics, Inc. Troy, N.Y.) and challenged with aerosolized methacholine. Pressure difference between this chamber and a reference chamber is used to extrapolate minute volume, breathing frequency and enhanced pause (Penh). Penh is a dimensionless parameter that is a function of total pulmonary airflow (i.e. the sum of the airflow in the upper and lower respiratory tracts) during the respiratory cycle of a mouse and is […] when airflow is greater. This parameter closely correlates with lung resistance as measured by traditional, invasive techniques using ventilated animals (Hamelmann et al., 1997, Am. J. Respir. Crit. Care Med. 156:766-775).\nIn the chronic model of allergic inflammation, mice are subjected to repeated intranasal OVA administration, producing a chronic inflammatory response. In this model, mice were sensitized by intraperitoneal injection with 100 μg of OVA on days 0 and 14 as in the previous models. OVA was administered at a dose of 500 μg on days 14, 27, 28, 29, 47, 61, 73, 74 and 75. Oligonucleotide, either ISIS 231894 or the mismatch control, was administered via the nose-only aerosol delivery exposure system at a dose of either 5 μg/kg or 500 μg/kg on days 31, 38, 45, 52, 59, 66 and 73. Dexamethasone, an anti-inflammatory agent, was administered by intraperitoneal injection at 2.5 mg/kg on days 47, 62, 73, 74 and 75. Analysis of endpoints was performed on day 76, except cytokines which were evaluated on day 62, 6 hours post OVA challenge. Endpoints were similar to those in the acute and rechallenge model, and included Penh (AHR), BAL inflammatory cell accumulation and cytokines and mucus accumulation."}, "[4]": {"tested_on": "IL-4R alpha mRNA", "test": "Dose-dependent reduction of IL-4R alpha mRNA in human A549 cells", "format": "cell-based", "from_the_text": "The human lung carcinoma cell line A549 was obtained from the American Type Culture Collection (Manassas, Va.). A549 cells were routinely cultured in DMEM, high glucose (Invitrogen Life Technologies, Carlsbad, Calif.) supplemented with 10% fetal bovine serum, 100 units per ml penicillin, and 100 micrograms per ml streptomycin (Invitrogen Life Technologies, Carlsbad, Calif.). Cells were routinely passaged by trypsinization and dilution when they reached approximately 90% confluence. Cells were seeded into 96-well plates (Falcon-Primaria #3872) at a density of approximately 5000 cells/well for use in oligomeric compound transfection experiments.\nWhen cells reach appropriate confluency, they are treated with oligonucleotide using Lipofectin™ as described. When cells reached 65-75% confluency, they were treated with oligonucleotide. Oligonucleotide was mixed with LIPOFECTIN™ Invitrogen Life Technologies, Carlsbad, Calif.) in Opti-MEM™-1 reduced serum medium (Invitrogen Life Technologies, Carlsbad, Calif.) to achieve the desired concentration of oligonucleotide and a LIPOFECTIN™ concentration of 2.5 or 3 […] oligonucleotide. This transfection mixture was incubated at room temperature for approximately 0.5 hours. For cells grown in 96-well plates, wells were washed once with 100 μL OPTI-MEM™-1 and then treated with 130 μL of the transfection mixture. Cells grown in 24-well plates or other standard tissue culture plates are treated similarly, using appropriate volumes of medium and oligonucleotide. […]\nQuantitation of IL-4R alpha mRNA levels was accomplished by real-time quantitative PCR using the ABI PRISM™ 7600, 7700, or 7900 Sequence Detection System (PE-Applied Biosystems, Foster City, Calif.) according to manufacturer's instructions.\nIn both cell types, at concentrations of 100 nM, 50 nM and 25 nM, ASOs 1-4 each caused dose-dependent reduction of target (TL-4R alpha) mRNA and protein (as measured by flow cytometry) with no significant effect on total cellular mRNA, measured 24 hours following ASO treatment."}, "[5]": {"tested_on": "MUC2 mRNA", "test": "Reduction of cytokine-induced MUC2 mRNA in human cells", "format": "cell-based", "conditions": "human A549 cells (table title)"}, "[6]": {"conditions": "mouse, in vivo"}, "[7]": {"conditions": "30 μg/kg budesonide alone (Table 9)"}, "[8]": {"conditions": "Table 11, 35 μg/kg + 5% DMSO intranasal"}, "[9]": {"conditions": "Table 11, 35 μg/kg + 20% DMSO intranasal"}}, "data": [{"molecule": "CCCC1O[C@@H]2C[C@H]3[C@@H]4CCC5=CC(=O)C=C[C@]5(C)[C@H]4[C@@H](O)C[C@]3(C)[C@]2(C(=O)CO)O1", "note": "(some centres unmarked) [budesonide]", "values": [{"measurement": "% Eosinophils (BAL)", "setting": "[1]; 0.3 μg/kg inhaled (Table 8)", "value": 41, "unit": "%"}, {"measurement": "Penh (100 mg/mL methacholine)", "setting": "[1]; 0.3 μg/kg inhaled (Table 8)", "value": 4.75}, {"measurement": "% Eosinophils (BAL)", "setting": "[1]; 3 μg/kg inhaled (Table 8)", "value": 32, "unit": "%"}, {"measurement": "Penh (100 mg/mL methacholine)", "setting": "[1]; 3 μg/kg inhaled (Table 8)", "value": 4.5}, {"measurement": "% Eosinophils (BAL)", "setting": "[1]; 30 μg/kg bid inhaled", "value": 20, "unit": "%"}, {"measurement": "Penh (100 mg/mL methacholine)", "setting": "[1]; 30 μg/kg bid inhaled", "value": 3.25}, {"measurement": "% Eosinophils (BAL)", "setting": "[1]; [7]", "value": 20, "unit": "%"}, {"measurement": "PAS+ airways (mucus accumulation)", "setting": "[1]; [7]", "value": 18}, {"measurement": "Penh (100 mg/mL methacholine)", "setting": "[1]; [7]", "value": 5.5}, {"measurement": "% Eosinophils (BAL)", "setting": "[1]; 30 μg/kg inhaled (Table 8)", "value": 21, "unit": "%"}, {"measurement": "Penh (100 mg/mL methacholine)", "setting": "[1]; 30 μg/kg inhaled (Table 8)", "value": 3.25}, {"measurement": "% Eosinophils (BAL)", "setting": "[1]; 300 μg/kg inhaled (Table 8)", "value": 15, "unit": "%"}, {"measurement": "Penh (100 mg/mL methacholine)", "setting": "[1]; 300 μg/kg inhaled (Table 8)", "value": 3.75}, {"measurement": "minimum effective dose", "setting": "[1]; inhaled", "value": 0.03, "unit": "mg/kg"}, {"measurement": "Nasal rubs", "setting": "[2]; Table 10, 3.5 μg/kg intranasal", "value": 5, "unit": "per 5 min"}, {"measurement": "Sneezes", "setting": "[2]; Table 10, 3.5 μg/kg intranasal", "value": 6, "unit": "per 5 min"}, {"measurement": "% Nasal lavage eosinophils", "setting": "[2]; Table 10, 35 μg/kg intranasal", "value": 11, "unit": "%"}, {"measurement": "% Nasal lavage neutrophils", "setting": "[2]; Table 10, 35 μg/kg intranasal", "value": 28, "unit": "%"}, {"measurement": "Nasal rubs", "setting": "[2]; Table 10, 35 μg/kg intranasal", "value": 4.5, "unit": "per 5 min"}, {"measurement": "Sneezes", "setting": "[2]; Table 10, 35 μg/kg intranasal", "value": 2, "unit": "per 5 min"}, {"measurement": "% Nasal lavage eosinophils", "setting": "[2]; Table 10, 350 μg/kg intranasal", "value": 4, "unit": "%"}, {"measurement": "% Nasal lavage neutrophils", "setting": "[2]; Table 10, 350 μg/kg intranasal", "value": 12, "unit": "%"}, {"measurement": "Nasal rubs", "setting": "[2]; Table 10, 350 μg/kg intranasal", "value": 4, "unit": "per 5 min"}, {"measurement": "Sneezes", "setting": "[2]; Table 10, 350 μg/kg intranasal", "value": 3, "unit": "per 5 min"}, {"measurement": "% Nasal lavage eosinophils", "setting": "[2]; Table 10, 500 μg/kg intranasal", "value": 2, "unit": "%"}, {"measurement": "% Nasal lavage neutrophils", "setting": "[2]; Table 10, 500 μg/kg intranasal", "value": 6, "unit": "%"}, {"measurement": "Nasal rubs", "setting": "[2]; Table 10, 500 μg/kg intranasal", "value": 2, "unit": "per 5 min"}, {"measurement": "Sneezes", "setting": "[2]; Table 10, 500 μg/kg intranasal", "value": 2, "unit": "per 5 min"}, {"measurement": "% Nasal lavage eosinophils", "setting": "[2]; [8]", "value": 7, "unit": "%"}, {"measurement": "% Nasal lavage neutrophils", "setting": "[2]; [8]", "value": 9, "unit": "%"}, {"measurement": "Nasal rubs", "setting": "[2]; [8]", "value": 0.6, "unit": "per 5 min"}, {"measurement": "Sneezes", "setting": "[2]; [8]", "value": 2.8, "unit": "per 5 min"}, {"measurement": "Tissue eosinophils", "setting": "[2]; [8]", "value": 174, "unit": "per mm^2"}, {"measurement": "% Nasal lavage eosinophils", "setting": "[2]; [9]", "value": 7, "unit": "%"}, {"measurement": "% Nasal lavage neutrophils", "setting": "[2]; [9]", "value": 12, "unit": "%"}, {"measurement": "Nasal rubs", "setting": "[2]; [9]", "value": 1.2, "unit": "per 5 min"}, {"measurement": "Sneezes", "setting": "[2]; [9]", "value": 5.8, "unit": "per 5 min"}]}, {"molecule": "C[C@@H]1C[C@H]2[C@@H]3CCC4=CC(=O)C=C[C@]4(C)[C@@]3(F)[C@@H](O)C[C@]2(C)[C@@]1(O)C(=O)CO", "note": "[dexamethasone, reference compound]", "values": [{"measurement": "% Eosinophils (BAL)", "setting": "[3]", "value": 25, "unit": "%"}, {"measurement": "% Neutrophils (BAL)", "setting": "[3]", "value": 58, "unit": "%"}]}, {"molecule": "ASO3: antisense oligonucleotide targeted to human IL-4R alpha; TGGAAAGGCTTATACCCCTC; SEQ ID NO: 25 (chemistry not given here)", "values": [{"measurement": "IL-4R alpha mRNA", "setting": "[4]; 25 nM", "value": "45 % of untreated control"}, {"measurement": "IL-4R alpha mRNA", "setting": "[4]; 50 nM", "value": "29 % of untreated control"}, {"measurement": "IL-4R alpha mRNA", "setting": "[4]; 100 nM", "value": "17 % of untreated control"}, {"measurement": "MUC-2 mRNA", "setting": "[5]; 25 nM", "value": "86 % of untreated control"}, {"measurement": "MUC-2 mRNA", "setting": "[5]; 50 nM", "value": "63 % of untreated control"}, {"measurement": "MUC-2 mRNA", "setting": "[5]; 100 nM", "value": "39 % of untreated control"}, {"measurement": "macrophage infiltrate in the lung, in words", "setting": "[6]", "value": "dose-related macrophage infiltrate was observed"}, {"measurement": "serum chemistry markers or lung morphology (histology), in words", "setting": "[6]; ip", "value": "no change"}]}]}
